Data: publication PMC2584942, “Phase I dose escalation study of telatinib (BAY 57-9352) in patients with advanced solid tumours” (British Journal of Cancer, 2008)
Entries after “also recorded” stand apart in the source; their conditions may differ.

Experiments:
[1] = test system: human aortic smooth muscle cells; design: method as in printed; conditions: background statement, ref not given; cited from earlier work
[2] = test system: cytochrome P450 (CYP) isoforms; design: method as in printed; conditions: background statement, ref not given, cited from earlier work
[3] = Phase I dose escalation: study drug-related adverse events (NCI CTC v2.0), DLT, MTD; assay type: in vivo
Procedure: Administration of telatinib was continued until an unacceptable toxicity, disease progression or death occurred or the consent was withdrawn. At start of the study, only a solution formulation was available. The formulation as tablet was introduced into the study after first pharmacokinetic results became available. Based on pharmacokinetic data, OD, two times daily (BID), and three times daily schedules were evaluated.
Three patients were initially enroled at each dose level. […] If any patient experienced a DLT, three additional patients were enroled at that dose level. If at least two out of six patients experienced a DLT, dose escalation had to be stopped and that dose was to be declared the toxic dose. The next lower dose level was defined as the MTD. […] In the course of the study the protocol was amended so that the onset of CTC grade 3 hypertension was only considered to be a DLT if the hypertension turned out to be refractory to standard antihypertensive treatment.
Adverse events were assessed at the end of each cycle and graded according to the National Cancer Institute Common Toxicity Criteria (NCI CTC), v2.0 ([Trotti et al, 2000]).
History, physical examinations, haematological and biochemical laboratory evaluations were performed at screening, on days 1, 7 and 14 of cycle 1 and on day 1 of subsequent cycles. Baseline objective tumour measurements were performed within 4 weeks prior to study treatment. Lesions at all disease sites were categorised as either measurable or nonmeasurable. Indicator lesions were selected and monitored throughout the study by the same assessor and using the same technique. Tumour response was evaluated according to the RECIST ([Therasse et al, 2000]).

VEGF = assay: Plasma VEGF concentration (ELISA); assay type: in vivo, human
Procedure: […] Samples were analysed using the relevant quantitative enzyme-linked immunosorbent assay (ELISA) (R&D Systems Europe, Oxford, UK) according to the manufacturer's instructions. DCE-MRI was performed at baseline, on day 2 (only cycle 1), and on day 14 of cycles 1–3 to assess tumour blood flow/tumour vessel permeability in a subgroup of patients ([Morgan et al, 2003]).
To assess the biological activity of telatinib, plasma concentration analyses for the angiogenic markers VEGF, sVEGFR-2, bFGF, PDGF and […] were performed at baseline and during the course of the study. Furthermore, DCE-MRI measurements were done at baseline, on days 2 and 14 of cycle 1 and on day 14 of cycles 2 and 3. Evaluable DCE-MRI results were available for a subgroup of patients treated at dose levels of 300 mg BID or higher.

VEGFR-2 = test system: VEGFR-2; design: method as in printed; conditions: biochemical assay; background statement, ref not given; cited from earlier work
[4] = design: method as in printed; conditions: in vitro studies; background statement, ref not given; cited from earlier work
Colo-205 colon carcinoma = test system: Colo-205 colon carcinoma; design: method as in printed; conditions: Colo-205 colon carcinoma model; background statement, ref not given; cited from earlier work
[5] = test system: human umbilical vein endothelial cells; design: method as in printed; conditions: human umbilical vein endothelial cells in vitro; background statement, ref not given; cited from earlier work
[6] = test system: VEGFR-2 autophosphorylation; design: method as in printed; conditions: whole-cell assay in vitro; background statement, ref not given; cited from earlier work
[7] = continuous dosing 600 mg BID (N=7)
[8] = continuous dosing 900 mg BID (N=6)
[9] = continuous dosing 1200 mg BID (N=7)
[10] = continuous dosing 1500 mg BID (N=6)
[11] = noncontinuous dosing 600 mg BID (N=6)
[12] = noncontinuous dosing 900 mg BID (N=6)
[13] = noncontinuous dosing 1500 mg BID (N=6)
[14] = noncontinuous dosing 75–300 mg BID (N=27)

## CNC(=O)c1cc(COc2nnc(Nc3ccc(Cl)cc3)c3ccoc23)ccn1 [telatinib]
[1]
  PDGF-stimulated growth: inhibited
[2]
  main target of metabolic degradation: N-methyl group
[2]; human microsomes, hepatocytes or single CYP isoforms
  risk of drug–drug interactions: no or only a very low risk of drug–drug interactions
[2]; in vitro
  biotransformation by CYP isoforms: metabolised by various CYP isoforms
[3]; 300 mg BID, 1500 mg BID noncontinuous and 1200 mg BID continuous dosing
  Patients with hypertension resulting in dose reduction and dose interruption: three
[3]; 1500 mg BID continuous dosing, first 21 days of treatment
  Patients with dose-limiting toxicities: no patient out of six patients; also recorded: none of the six patients
[3]; 1500 mg BID noncontinuous dosing, grade 3 hypertension refractory to standard treatment
  Patients with dose-limiting toxicities: one out of six patients
[3]; Total, all patients N=71
  Incidence of patients with study drug-related adverse events, worst CTC grade 3: Abdominal pain or cramping: 2 (3) N(%)
  Incidence of patients with study drug-related adverse events, worst CTC grade 3: Any event: 18 (25) N(%)
  Incidence of patients with study drug-related adverse events, worst CTC grade 3: Dehydration: 1 (1) N(%)
  Incidence of patients with study drug-related adverse events, worst CTC grade 3: Diarrhoea, patients with colostomy: 1 (1) N(%)
  Incidence of patients with study drug-related adverse events, worst CTC grade 3: Diarrhoea, patients without colostomy: 4 (6) N(%)
  Incidence of patients with study drug-related adverse events, worst CTC grade 3: Hand–foot skin reaction: 1 (1) N(%)
  Incidence of patients with study drug-related adverse events, worst CTC grade 3: Hypertension: 16 (23) N(%)
  Incidence of patients with study drug-related adverse events, worst CTC grade 3: Rash/desquamation: 1 (1) N(%)
  Incidence of patients with study drug-related adverse events, worst CTC grades 1–2: Alopecia: 2 (3) N(%)
  Incidence of patients with study drug-related adverse events, worst CTC grades 1–2: Anorexia: 5 (7) N(%)
  Incidence of patients with study drug-related adverse events, worst CTC grades 1–2: Any event: 15 (21) N(%)
  Incidence of patients with study drug-related adverse events, worst CTC grades 1–2: Diarrhoea, patients without colostomy: 4 (6) N(%)
  Incidence of patients with study drug-related adverse events, worst CTC grades 1–2: Fatigue: 2 (3) N(%)
  Incidence of patients with study drug-related adverse events, worst CTC grades 1–2: Flatulence: 2 (3) N(%)
  Incidence of patients with study drug-related adverse events, worst CTC grades 1–2: Hypertension: 3 (4) N(%)
  Incidence of patients with study drug-related adverse events, worst CTC grades 1–2: Nausea: 3 (4) N(%)
  Incidence of patients with study drug-related adverse events, worst CTC grades 1–2: Voice changes/stridor/larynx: 5 (7) N(%)
  Incidence of patients with study drug-related adverse events, worst CTC grades 1–2: Vomiting: 2 (3) N(%)
[3]; all patients
  Patients dose reduced or discontinued permanently due to drug-related adverse events: nine out of 71
[3]; all patients N=71
  Hypertension, study drug-related, CTC grade 3: 23%
  Hypertension, study drug-related, worst CTC grade 1–2: 4%
  Patients with at least one study drug-related adverse event, worst CTC grade 1–2: 21%
  Patients with at least one study drug-related adverse event, worst CTC grade 3: 25%
  Study drug-related adverse events of CTC grades 4 or 5: no study drug-related adverse events of CTC grades 4 or 5
[3]; all patients N=71 (with and without colostomy)
  Diarrhoea, study drug-related, CTC grade 3: 7%
[3]; all patients, diarrhoea, hypertension, hand–foot skin reaction and dehydration
  Patients with serious study drug-related adverse events: five
[3]; [7]
  Incidence of patients with study drug-related adverse events, worst CTC grades 1–2: Any event: 1 (14) N(%)
  Incidence of patients with study drug-related adverse events, worst CTC grades 1–2: Diarrhoea, patients without colostomy: 1 (14) N(%)
[3]; [8]
  Incidence of patients with study drug-related adverse events, worst CTC grade 3: Any event: 3 (50) N(%)
  Incidence of patients with study drug-related adverse events, worst CTC grade 3: Dehydration: 1 (17) N(%)
  Incidence of patients with study drug-related adverse events, worst CTC grade 3: Diarrhoea, patients with colostomy: 1 (17) N(%)
  Incidence of patients with study drug-related adverse events, worst CTC grade 3: Diarrhoea, patients without colostomy: 1 (17) N(%)
  Incidence of patients with study drug-related adverse events, worst CTC grade 3: Hand–foot skin reaction: 1 (17) N(%)
  Incidence of patients with study drug-related adverse events, worst CTC grade 3: Hypertension: 2 (33) N(%)
  Incidence of patients with study drug-related adverse events, worst CTC grade 3: Rash/desquamation: 1 (17) N(%)
  Incidence of patients with study drug-related adverse events, worst CTC grades 1–2: Alopecia: 1 (17) N(%)
  Incidence of patients with study drug-related adverse events, worst CTC grades 1–2: Any event: 2 (33) N(%)
  Incidence of patients with study drug-related adverse events, worst CTC grades 1–2: Nausea: 1 (17) N(%)
  Incidence of patients with study drug-related adverse events, worst CTC grades 1–2: Voice changes/stridor/larynx: 1 (17) N(%)
[3]; [9]
  Incidence of patients with study drug-related adverse events, worst CTC grade 3: Abdominal pain or cramping: 1 (14) N(%)
  Incidence of patients with study drug-related adverse events, worst CTC grade 3: Any event: 5 (71) N(%)
  Incidence of patients with study drug-related adverse events, worst CTC grade 3: Diarrhoea, patients without colostomy: 2 (29) N(%)
  Incidence of patients with study drug-related adverse events, worst CTC grade 3: Hypertension: 5 (71) N(%)
  Incidence of patients with study drug-related adverse events, worst CTC grades 1–2: Any event: 1 (14) N(%)
  Incidence of patients with study drug-related adverse events, worst CTC grades 1–2: Flatulence: 1 (14) N(%)
[3]; [10]
  Incidence of patients with study drug-related adverse events, worst CTC grades 1–2: Any event: 2 (33) N(%)
  Incidence of patients with study drug-related adverse events, worst CTC grades 1–2: Diarrhoea, patients without colostomy: 2 (33) N(%)
  Incidence of patients with study drug-related adverse events, worst CTC grades 1–2: Flatulence: 1 (17) N(%)
  Incidence of patients with study drug-related adverse events, worst CTC grades 1–2: Hypertension: 1 (17) N(%)
  Incidence of patients with study drug-related adverse events, worst CTC grades 1–2: Nausea: 1 (17) N(%)
  Incidence of patients with study drug-related adverse events, worst CTC grades 1–2: Vomiting: 1 (17) N(%)
[3]; continuous dosing, MTD not reached up to highest dose
  Maximum-tolerated dose (MTD): > 1500 mg BID
[3]; cycle 1, day 14 vs baseline
  diastolic blood pressure, change from baseline: increase
[3]; dose levels of 900 mg BID or higher
  Patients with diarrhoea leading to dose reduction or interruption: four
[3]; grade 3 hypertension refractory to standard treatment, at 300 and 1500 mg BID noncontinuous dosing
  Patients with dose-limiting toxicities: two
[3]; human, in vivo
  Maximum-tolerated dose (MTD): > 1500 mg BID
[3]; [11]
  Incidence of patients with study drug-related adverse events, worst CTC grade 3: Any event: 3 (50) N(%)
  Incidence of patients with study drug-related adverse events, worst CTC grade 3: Hypertension: 3 (50) N(%)
  Incidence of patients with study drug-related adverse events, worst CTC grades 1–2: Anorexia: 1 (17) N(%)
  Incidence of patients with study drug-related adverse events, worst CTC grades 1–2: Any event: 2 (33) N(%)
  Incidence of patients with study drug-related adverse events, worst CTC grades 1–2: Fatigue: 2 (33) N(%)
  Incidence of patients with study drug-related adverse events, worst CTC grades 1–2: Voice changes/stridor/larynx: 2 (33) N(%)
[3]; [12]
  Incidence of patients with study drug-related adverse events, worst CTC grade 3: Any event: 2 (33) N(%)
  Incidence of patients with study drug-related adverse events, worst CTC grade 3: Hypertension: 2 (33) N(%)
  Incidence of patients with study drug-related adverse events, worst CTC grades 1–2: Anorexia: 1 (17) N(%)
  Incidence of patients with study drug-related adverse events, worst CTC grades 1–2: Any event: 3 (50) N(%)
  Incidence of patients with study drug-related adverse events, worst CTC grades 1–2: Hypertension: 1 (17) N(%)
  Incidence of patients with study drug-related adverse events, worst CTC grades 1–2: Voice changes/stridor/larynx: 2 (33) N(%)
[3]; [13]
  Incidence of patients with study drug-related adverse events, worst CTC grade 3: Abdominal pain or cramping: 1 (17) N(%)
  Incidence of patients with study drug-related adverse events, worst CTC grade 3: Any event: 4 (67) N(%)
  Incidence of patients with study drug-related adverse events, worst CTC grade 3: Diarrhoea, patients without colostomy: 1 (17) N(%)
  Incidence of patients with study drug-related adverse events, worst CTC grade 3: Hypertension: 3 (50) N(%)
  Incidence of patients with study drug-related adverse events, worst CTC grades 1–2: Anorexia: 2 (33) N(%)
  Incidence of patients with study drug-related adverse events, worst CTC grades 1–2: Any event: 2 (33) N(%)
  Incidence of patients with study drug-related adverse events, worst CTC grades 1–2: Diarrhoea, patients without colostomy: 1 (17) N(%)
  Incidence of patients with study drug-related adverse events, worst CTC grades 1–2: Hypertension: 1 (17) N(%)
  Incidence of patients with study drug-related adverse events, worst CTC grades 1–2: Nausea: 1 (17) N(%)
  Incidence of patients with study drug-related adverse events, worst CTC grades 1–2: Vomiting: 1 (17) N(%)
[3]; [14]
  Incidence of patients with study drug-related adverse events, worst CTC grade 3: Any event: 1 (4) N(%)
  Incidence of patients with study drug-related adverse events, worst CTC grade 3: Hypertension: 1 (4) N(%)
  Incidence of patients with study drug-related adverse events, worst CTC grades 1–2: Alopecia: 1 (4) N(%)
  Incidence of patients with study drug-related adverse events, worst CTC grades 1–2: Anorexia: 1 (4) N(%)
  Incidence of patients with study drug-related adverse events, worst CTC grades 1–2: Any event: 2 (7) N(%)
VEGF; day 21 compared to baseline
  VEGF levels: increased
VEGF; within 8 h after the first telatinib administration
  VEGF plasma levels: dose-dependent short-term increase
VEGFR-2
  VEGFR-2 tyrosine kinase activity: potent inhibitor
[4]
  drug–drug interactions due to displacement from plasma protein-binding sites: unlikely
Colo-205 colon carcinoma
  tumour growth in vivo: potent, dose-dependent reduction in tumour growth
[5]
  VEGF-dependent proliferation: inhibited
[6]
  VEGFR-2 autophosphorylation: inhibited
